Like-named read-outs stand apart in the source and are kept apart here.
Key:
[1] = system: U1810 Non Small Cell Lung Carcinoma; test: Primary high-throughput screen, Alamar Blue, adherent cells; assay type: cell-based; details: U-1810; compound at 10 μM, 72 h; read-out: percentage kill, U1810
Description: (§1) Adherent cells are plated at a pre-determined seeding density (Table 1) in flat-bottom 96 well plates 24 hours prior to drug treatment. The cell lines are plated in 100 μl volumes in each well. Cells are plated in all wells apart from those in Column 12 which contain 100 μL normal culture medium alone. These plates will be known as the Test Plates. The Test Plates are labelled with a Daughter Plate ID.
(§2) Daughter Plates containing 10 μl of a […] solution of test compound selected from among the candidate compounds stored at […] are thawed at room temperature. A 10 μL volume of 0.1% DMSO in PBS is added to all wells of Column 12 and the wells in Row A-F of Column 1. A 10 μl volume of a pre-determined concentration of the P13-Kinase inhibitor LY294002 is added to wells in Row G and H of Column 1. A 90 μl volume of the appropriate cell culture medium is then added to each well and mixed by repeated aspiration/dispensing. The compounds are at a final test concentration of 10 μM.
(§3) Once the Daughter Plates have been prepared the media is removed from all wells of the cell culture plate using an 8-Channel Vacuum Aspirator. The contents of the Daughter Plates are then transferred to the appropriate wells of their relevant Test Plates and the Test Plates are incubated for 72 h at 37° C. and 5% CO2. At the end of this period Test Plates are assayed by Alamar Blue. A 10 μl volume of Alamar Blue is added to all wells of the Test Plate. The Test Plates are incubated for […] at 37° C. and 5% CO2 and finally read using the BioTek SYNERGY plate reader (Excitation 530125 nm-Emission 590135 nm). Percentage inhibition is determined using Microsoft Excel spreadsheet calculations.
(§4) The figures appearing in the columns are the percentage kill achieved by that compound at 10 μM.

[2] = system: CACO2 Colon adenocarcinoma; test: as above; assay type: cell-based; details: Homo sapiens, Caco-2; compound at 10 μM, 72 h; read-out: percentage kill, CAC02
Description: as §1, §2, §3, §4

[3] = system: PC3 Prostate carcinoma (bone metastasis); test: as above; assay type: cell-based; details: compound at 10 μM, 72 h; read-out: percentage kill, PC3
Description: as §1, §2, §3, §4

[4] = system: A549 Non Small Cell Lung Carcinoma; test: as above; assay type: cell-based; details: Homo sapiens, compound at 10 μM, 72 h, read-out: percentage kill, A549
Description: as §1, §2, §3, §4

[5] = system: SW480 Colon adenocarcinoma (Dukes' type B); test: as above; assay type: cell-based; details: Homo sapiens, compound at 10 μM, 72 h, read-out: percentage kill, SW480
Description: as §1, §2, §3, §4

[6] = system: HT29 Colorectal adenocarcinoma; test: as above; assay type: cell-based; details: Homo sapiens, HT-29; compound at 10 μM, 72 h; read-out: percentage kill, HT29
Description: as §1, §2, §3, §4

[7] = system: NCI ADR RES Breast adenocarcinoma (pleural effusion); test: as above; assay type: cell-based; details: Homo sapiens, compound at 10 μM, 72 h, read-out: percentage kill, NCI ADR RES
Description: as §1, §2, §3, §4

[8] = system: LS123 Colon adenocarcinoma (Dukes' type B); test: as above; assay type: cell-based; details: Homo sapiens, LS-123; compound at 10 μM, 72 h; read-out: percentage kill, LS123
Description: as §1, §2, §3, §4

[9] = system: MCF7 Mammary gland adenocarcinoma; test: as above; assay type: cell-based; details: Homo sapiens, compound at 10 μM, 72 h, read-out: percentage kill, MCF7
Description: as §1, §2, §3, §4

[10] = system: colon cancer cell line HT29; test: EC50 titration, Alamar Blue, adherent cells; assay type: cell-based; details: Homo sapiens, HT-29, 72 h
Description: (§5) On the day of the assay compounds are used to prepare dilution series on Titration Plates which are plated at ten times their final screening concentration in 10 μl aliquots.
(§6) For adherent cell lines plated 24 hours previously, a 90 μl volume of the appropriate cell culture medium is then added to each well of the Titration Plates and mixed by repeated aspiration/dispensing, thus taking the compounds to their final test concentration. Once the Titration Plates have been prepared the media is removed from all wells of the cell culture plate and the contents of the Titration Plates are then transferred to the appropriate wells of their relevant Test Plates and incubated for 72 h at 37° C. and 5% CO2 after which time they are assayed by Alamar Blue. Using a combination of Microsoft Excel and Graph Pad Prism, EC50s are determined.
(§7) The EC50 values are calculated using the values obtained from the Alamar Blue readout which are converted into a “Percentage of the Untreated Control” and using Graph Pad Prism these values are plotted against the logarithm of the test concentration. Using a non-linear regression analysis a sigmoidal dose-response curve is generated from which the EC50 is determined.

[11] = system: non-transformed breast cell line MCF10A; test: EC50 titration, Alamar Blue, adherent cells; assay type: cell-based; details: Homo sapiens, MCF-10A, 72 h
Description: as §5, §6, §7

[12] = system: breast cancer cell line MCF7; test: EC50 titration, Alamar Blue, adherent cells; assay type: cell-based; details: Homo sapiens, 72 h
Description: as §5, §6, §7

C9M-TF1 cells [13] = test: EC50 titration, Alamar Blue, suspension cells; assay type: cell-based; details: Homo sapiens, 72 h
Description: as §5
(§8) Suspension cells are split 24 hours prior to drug treatment in order to bring the cultures into the log phase of growth. On the day of the assay the cells are plated directly into the Titration Plates at the appropriate pre-determined seeding density (Table 1) in 90 μl volumes thus reducing the concentration of the compounds to their final test concentration. The plates are incubated for 72 hours at 37° C. and 5% CO2 after which time they are assayed by Alamar Blue.
as §7

FRAT2-C9M-TF1 cells = test: EC50 titration, Alamar Blue, suspension cells; assay type: cell-based, Human; details: Homo sapiens, 72 h, Alamar Blue
Description: as §5, §8, §7

[14] = system: FRAT2 overexpresing TF1 (FRAT2-C9M-TF1 cells); test: Primary high-throughput screen, Alamar Blue, suspension cells; assay type: cell-based; details: Homo sapiens, compound at 10 μM, 72 h
Description: as §2, §3
(§9) Suspension cells are split 24 hours prior to drug treatment in order to bring the cultures into the log phase of growth. On the day of the assay the cells are plated directly into the Daughter Plates at the appropriate pre-determined seeding density (Table 1) in 90 μl volumes, the concentration of the test compounds thus being reduced to 10 μM. Cells are plated in all wells apart from those in Column 12 which contain 901 normal culture medium alone. The plates are incubated for 72 h at 37° C. and 5% CO2 after which time they are assayed by Alamar Blue as per the preceding example.
as §4

C9M-TF1 cells [15] = test: as above; assay type: cell-based; details: Homo sapiens, 72 h, compound at 10 μM, read-out: percentage kill, C9M
Description: as §2, §3, §9, §4

[16] = minus GMCSF, read-out: percentage kill, FRAT2−
[17] = plus GMCSF, read-out: percentage kill, FRAT2+

c1ccc(-c2cnn3c(NCc4ccccn4)ccnc23)cc1 [Compound 5]
inhibition at 10 µM [1]: 24% | inhibition at 10 µM [2]: 78% | inhibition at 10 µM [3]: -92% | inhibition at 10 µM [4]: 10% | inhibition at 10 µM [5]: 62% | inhibition at 10 µM [6]: 75% | inhibition at 10 µM [7]: 63% | inhibition at 10 µM [8]: 87% | inhibition at 10 µM [9]: 87% | EC50 [10]: 1.58 µM | EC50 [11]: 12.9 µM | EC50 [12]: 1.51 µM | EC50 (C9M-TF1 cells [13]): 16.6 µM | EC50 (FRAT2-C9M-TF1 cells; absence of growth factor): 3.63 µM | EC50 (FRAT2-C9M-TF1 cells; presence of growth factor): 5.75 µM | inhibition at 10 µM [14, 16]: 61% | inhibition at 10 µM [14, 17]: 42% | inhibition at 10 µM (C9M-TF1 cells [15]; first C9M column): 1% | inhibition at 10 µM (C9M-TF1 cells [15]; second C9M column): -11%

Fc1ccccc1-c1cnn2c(NCc3ccccn3)ccnc12 [Compound 6]
inhibition at 10 µM [1]: 11% | inhibition at 10 µM [2]: 37% | inhibition at 10 µM [3]: -94% | inhibition at 10 µM [4]: 6% | inhibition at 10 µM [5]: 3% | inhibition at 10 µM [6]: 20% | inhibition at 10 µM [7]: 51% | inhibition at 10 µM [8]: 72% | inhibition at 10 µM [9]: 64% | EC50 [10]: 1.41 µM | EC50 [11]: 23.4 µM | EC50 [12]: 1.32 µM | EC50 (C9M-TF1 cells [13]): 10 µM | EC50 (FRAT2-C9M-TF1 cells; absence of growth factor): 5.75 µM | EC50 (FRAT2-C9M-TF1 cells; presence of growth factor): 5.13 µM | inhibition at 10 µM [14, 16]: 59% | inhibition at 10 µM [14, 17]: 33% | inhibition at 10 µM (C9M-TF1 cells [15]; first C9M column): -1% | inhibition at 10 µM (C9M-TF1 cells [15]; second C9M column): -11%

Cc1csc(-c2cnn3c(NCc4ccccn4)ccnc23)c1 [Compound 10]
inhibition at 10 µM [1]: 16% | inhibition at 10 µM [2]: 25% | inhibition at 10 µM [3]: -45% | inhibition at 10 µM [4]: 8% | inhibition at 10 µM [5]: 51% | inhibition at 10 µM [6]: 68% | inhibition at 10 µM [7]: 52% | inhibition at 10 µM [8]: 89% | inhibition at 10 µM [9]: 77% | EC50 [10]: 1.78 µM | EC50 [11]: 20.4 µM | EC50 [12]: 1.86 µM | EC50 (C9M-TF1 cells [13]): 22.9 µM | EC50 (FRAT2-C9M-TF1 cells; absence of growth factor): 5.37 µM | EC50 (FRAT2-C9M-TF1 cells; presence of growth factor): 4.68 µM | inhibition at 10 µM [14, 16]: 71% | inhibition at 10 µM [14, 17]: 16% | inhibition at 10 µM (C9M-TF1 cells [15]; first C9M column): 14% | inhibition at 10 µM (C9M-TF1 cells [15]; second C9M column): -8%

CN(C)c1cccc(-c2cnn3c(NCc4ccccn4)ccnc23)c1 [Compound 7]
inhibition at 10 µM [1]: 18% | inhibition at 10 µM [2]: 32% | inhibition at 10 µM [3]: -16% | inhibition at 10 µM [4]: 5% | inhibition at 10 µM [5]: 44% | inhibition at 10 µM [6]: 40% | inhibition at 10 µM [7]: 63% | inhibition at 10 µM [8]: 82% | inhibition at 10 µM [9]: 68% | EC50 [10]: 4.07 µM | EC50 [11]: 11.5 µM | EC50 [12]: 2.34 µM | EC50 (C9M-TF1 cells [13]): 20.4 µM | EC50 (FRAT2-C9M-TF1 cells; absence of growth factor): 6.61 µM | EC50 (FRAT2-C9M-TF1 cells; presence of growth factor): 5.01 µM | inhibition at 10 µM [14, 16]: 53% | inhibition at 10 µM [14, 17]: 27% | inhibition at 10 µM (C9M-TF1 cells [15]; first C9M column): 9% | inhibition at 10 µM (C9M-TF1 cells [15]; second C9M column): 23%

COc1ccc(-c2cnn3c(NCc4ccccn4)ccnc23)c(OC)c1 [Compound 4]
inhibition at 10 µM [1]: 16% | inhibition at 10 µM [2]: 35% | inhibition at 10 µM [3]: -4% | inhibition at 10 µM [4]: 12% | inhibition at 10 µM [5]: 53% | inhibition at 10 µM [6]: 71% | inhibition at 10 µM [7]: 67% | inhibition at 10 µM [8]: 92% | inhibition at 10 µM [9]: 64% | EC50 [10]: 1.58 µM | EC50 [11]: 14.5 µM | EC50 [12]: 1.78 µM | EC50 (C9M-TF1 cells [13]): 21.4 µM | EC50 (FRAT2-C9M-TF1 cells; absence of growth factor): 2.75 µM | EC50 (FRAT2-C9M-TF1 cells; presence of growth factor): 5.62 µM | inhibition at 10 µM [14, 16]: 71% | inhibition at 10 µM [14, 17]: 36% | inhibition at 10 µM (C9M-TF1 cells [15]; first C9M column): 1% | inhibition at 10 µM (C9M-TF1 cells [15]; second C9M column): 1%

COc1ccc(-c2cnn3c(NCc4ccccn4)ccnc23)cn1 [Compound 9]
inhibition at 10 µM [1]: 52% | inhibition at 10 µM [2]: 65% | inhibition at 10 µM [3]: 9% | inhibition at 10 µM [4]: 7% | inhibition at 10 µM [5]: 58% | inhibition at 10 µM [6]: 69% | inhibition at 10 µM [7]: 64% | inhibition at 10 µM [8]: 80% | inhibition at 10 µM [9]: 76% | EC50 [10]: 2 µM | EC50 [11]: 12.9 µM | EC50 [12]: 1.7 µM | EC50 (C9M-TF1 cells [13]): 17.8 µM | EC50 (FRAT2-C9M-TF1 cells; absence of growth factor): 3.39 µM | EC50 (FRAT2-C9M-TF1 cells; presence of growth factor): 2.04 µM | inhibition at 10 µM [14, 16]: 62% | inhibition at 10 µM [14, 17]: 15% | inhibition at 10 µM (C9M-TF1 cells [15]; first C9M column): 9% | inhibition at 10 µM (C9M-TF1 cells [15]; second C9M column): -5%

Source: US20080300263A1, “Pyrazolo [1,5-a] pyrimidine compounds and pharmaceutical compositions containing them” (EiRx Therapeutics plc, priority 2005, published 2008)
